Assay results from patent publication US4411900A, “Benzhydrylpiperozinyl thiazole derivatives and pharmaceutical composition comprising the same” (Fujisawa Pharmaceutical Co., Ltd., priority 1980, dated 1983).

Tested on: anaphylactic asthma in guinea-pigs
Assay: Antagonism to anaphylactic asthma in guinea-pigs (inhibitory effect from number of surviving animals)
Format: in vivo, guinea-pig (male Hartley strain)
Settings: oral, 30 minutes before egg albumin challenge, survival more than 2 hours after antigen spray, *Dose group: 5 guineapigs (compound D)
Method: Equal volumes of a saline solution of egg albumin (200 mg/ml) and of Freund's Complete Ajuvant were mixed and emulsified. Each male New Zealand white strain rabbits, each weighing 2 to 2.5 kg., received an intramuscular injection of 0.5 ml of the emulsion in the left and right thigh regions. One week later, they received an intradermal injection of 0.25 ml of a saline solution of egg albumin (concentration: 20 mg/ml) in the different four sites of the dorsal skin surface three times every other week. Blood samples were collected from the carotid artery one week after the last injection.
The level of anaphylactic anti-egg albumin antibodies in pools of sera were determined by passive cutaneous anaphylaxis (PCA) reactions using shaven Hartley strain test guinea-pigs.
Antiserum was serially diluted (two fold) in saline and 0.1 ml of each antiserum dilution were injected intradermally into the dorsal skin surface of the test guinea-pigs. 24 hours after intradermal sensitization,Egg albumin-specific PCA reactions were elicited by intravenous injection of 10 mg of egg albumin in 1 ml of 1% Evans blue dye dissolved in saline. Reactions were read and recorded as the highest dilution of serum evoking threshold PCA reactivity (5 mm diameter).
Male Hartley strain guinea-pigs, weighing 305 to 400 g, were used. Animals were sensitized by an intravenous injection of rabbit antiserum against egg albumin (4000 PCA titer) with 0.5 ml/animal. After 24 hours, animals were placed individually in a plastic chamber of 5.3 liter volume. An aerosol of 5% egg albumin solution was sprayed in the chamber at a rate of 0.16 ml/min with a commercial nebulizer. The test compounds were given to the animals orally 30 minutes before the challenge with the egg albumin solution. Each dose group consisted of 3 or 5 animals. The inhibitory effect of the test compounds was determined from the number of surviving animals more than 2 hours after spray of the antigen.

SMILES	Inhibitory Effect (Dose 1 mg/kg) [%]	Inhibitory Effect (Dose 10 mg/kg) [%]
CS(=O)(=O)Nc1nc(CN2CCN(C(c3ccccc3)c3ccccc3)CC2)cs1 [Compound A, 4-(4-Benzhydrylpiperazin-1-ylmethyl)-2-methanesulfonamidothiazole]	100	100
CCCS(=O)(=O)Nc1nc(CN2CCN(C(c3ccccc3)c3ccccc3)CC2)cs1 [Compound C, 4-(4-Benzhydrylpiperazin-1-ylmethyl)-2-propanesulfonamidothiazole]	100	100
CC(=O)Nc1nc(CCCN2CCN(C(c3ccccc3)c3ccccc3)CC2)cs1 [Compound D, 4-[3-(4-Benzhydrylpiperazin-1-yl)-propyl]-2-acetamidothiazole]	40	100
CCS(=O)(=O)Nc1nc(CN2CCN(C(c3ccccc3)c3ccccc3)CC2)cs1 [Compound B, 4-(4-Benzhydrylpiperazin-1-ylmethyl)-2-ethanesulfonamidothiazole]	67	100
